In test [1] the target is Human KLK1 (Homo sapiens (Human), UniProt P06870). In words: Determination of the IC50 for KLK1 (fluorogenic substrate H-DVal-Leu-Arg-AFC). It is filed as biochemical. The settings on record: human KLK1, 37° C. As for the experimental part:
Selected compounds were further screened for inhibitory activity against the related enzyme KLK1. The ability of the compounds of formula (I) to inhibit KLK1 may be determined using the following biological assay:
Determination of the IC50 for KLK1
KLK1 inhibitory activity in vitro was determined using standard published methods (see e.g. Johansen et al., Int. J. Tiss. Reac. 1986, 8, 185; Shori et al., Biochem. Pharmacol., 1992, 43, 1209; Stürzebecher et al., Biol. Chem. Hoppe-Seyler, 1992, 373, 1025). Human KLK1 (Callbiochem) was incubated at 37° C. with the fluorogenic substrate H-DVal-Leu-Arg-AFC and various concentrations of the test compound. Residual enzyme activity (initial rate of reaction) was determined by measuring the change in optical absorbance at 410 nm and the IC50 value for the test compound was determined.

The target of test [2] is Human plasma kallikrein (Homo sapiens (Human), UniProt P03952). The experiment in a line: Determination of the IC50 for plasma kallikrein (fluorogenic substrate H-DPro-Phe-Arg-AFC). It is filed as biochemical. The settings on record: 37° C., read-out: IC50 (human PKal). The method, then: Determination of the IC50 Plasma Kallikrein Plasma kallikrein inhibitory activity in vitro was determined using standard published methods (see e.g. Johansen et al., Int. J. Tiss. […] Shori et al., Biochem. Pharmacol., 1992, 43, 1209; Stürzebecher et al., Biol. Chem. Hoppe-Seyler, 1992, 373, 1025). Human plasma kallikrein (Protogen) was incubated at 37° C. with the fluorogenic substrate […] and various concentrations of the test compound.

Among the data in patent US10221161B2, “Inhibitors of plasma kallikrein” (Kalvista Pharmaceuticals Limited, priority 2013, dated 2019) are IC50 values, retold here.

pIC50: −log10 of the molar value. Where only a bound is given, the exact number is not on record here.

Chain of Human KLK1 (P06870 25-262): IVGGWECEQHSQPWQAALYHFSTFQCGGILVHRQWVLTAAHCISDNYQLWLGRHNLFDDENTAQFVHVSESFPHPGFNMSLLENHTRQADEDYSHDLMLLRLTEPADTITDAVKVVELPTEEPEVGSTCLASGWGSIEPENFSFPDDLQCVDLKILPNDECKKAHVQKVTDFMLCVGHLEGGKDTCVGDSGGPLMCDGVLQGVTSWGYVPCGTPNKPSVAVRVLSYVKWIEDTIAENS
Chain of Human plasma kallikrein (P03952 391-638 limits assumed): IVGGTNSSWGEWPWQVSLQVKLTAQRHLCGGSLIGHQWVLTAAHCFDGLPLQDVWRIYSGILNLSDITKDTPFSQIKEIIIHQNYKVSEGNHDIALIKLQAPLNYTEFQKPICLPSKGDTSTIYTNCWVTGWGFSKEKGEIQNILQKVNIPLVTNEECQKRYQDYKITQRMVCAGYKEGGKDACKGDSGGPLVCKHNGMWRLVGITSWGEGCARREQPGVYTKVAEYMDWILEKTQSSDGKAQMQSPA
Chain of Human plasma kallikrein (P03952 20-390 partner limits assumed): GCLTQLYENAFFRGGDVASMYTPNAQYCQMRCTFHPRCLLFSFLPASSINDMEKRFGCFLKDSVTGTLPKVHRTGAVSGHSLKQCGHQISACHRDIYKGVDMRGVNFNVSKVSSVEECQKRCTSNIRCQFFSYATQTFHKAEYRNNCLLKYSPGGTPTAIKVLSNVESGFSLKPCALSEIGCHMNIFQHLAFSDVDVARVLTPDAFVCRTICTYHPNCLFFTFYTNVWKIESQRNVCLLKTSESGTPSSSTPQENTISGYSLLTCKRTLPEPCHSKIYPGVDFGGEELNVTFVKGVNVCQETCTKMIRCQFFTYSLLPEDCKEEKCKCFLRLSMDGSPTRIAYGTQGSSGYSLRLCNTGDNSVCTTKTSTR

Regarding `CN(C)[C@H]1CCN(c2ccc(Cc3cncc(C(=O)NCc4ccc5c(N)nccc5c4)c3)cn2)C1` (stereo in doubt) [Example 68, N-[(1-Aminoisoquinolin-6-yl)methyl]-5-({6-[3-(dimethylamino)pyrrolidin-1-yl]pyridin-3-yl}methyl)pyridine-3-carboxamide], the pIC50 in test [1] is 5.45; in test [2], 6.43. Taken in the same sequence, the figures for `CN(C)[C@@H]1CCN(c2ccc(Cc3cncc(C(=O)NCc4ccc5c(N)nccc5c4)c3)cn2)C1` (stereo in doubt) [Example 69, N-[(1-Aminoisoquinolin-6-yl)methyl]-5-({6-[3-(dimethylamino)pyrrolidin-1-yl]pyridin-3-yl}methyl)pyridine-3-carboxamide] were 5.61 and 6.24. In the same order, the values of `CN(C)[C@@H]1CCN(c2cc(Cc3cncc(C(=O)NCc4ccc5c(N)nccc5c4)c3)ccn2)C1` (stereo in doubt) [Example 90, N-[(1-Aminoisoquinolin-6-yl)methyl]-5-({2-[3-(dimethylamino)pyrrolidin-1-yl]pyridin-4-yl}methyl)pyridine-3-carboxamide] are 5.41 and 5.81. Take `CN(C)[C@H]1CCN(c2cc(Cc3cncc(C(=O)NCc4ccc5c(N)nccc5c4)c3)ccn2)C1` (stereo in doubt) [Example 91, N-[(1-Aminoisoquinolin-6-yl)methyl]-5-({2-[3-(dimethylamino)pyrrolidin-1-yl]pyridin-4-yl}methyl)pyridine-3-carboxamide]: the pIC50 in test [1] was 5.68; in test [2], 5.77. For the molecule `Cc1cnn(Cc2ccc(Cc3cncc(C(=O)NCc4ccc5c(N)nccc5c4)c3)cc2)c1` [Example 1, N-[(1-Aminoisoquinolin-6-yl)methyl]-({4-[(4-methylpyrazol-1-yl)methyl]phenyl}methyl)pyridine-3-carboxamide], the pIC50 in test [1] was less than 5.00. Molecule `Cc1cnn(Cc2ccc(Cc3cncc(C(=O)NCc4cnc5[nH]ccc5c4)c3)cc2)c1` [Example 2] showed a pIC50 in test [1] of less than 5.00. Take `Cc1cnn(Cc2ccc(Cc3ccnc(C(=O)NCc4ccc5c(N)nccc5c4)c3)cc2)c1` [Example 3, N-[(1-Aminoisoquinolin-6-yl)methyl]-4-({4-[(4-methylpyrazol-1-yl)methyl]phenyl}methyl)pyridine-2-carboxamide]: the negative logarithm of the IC50 (pIC50) in test [1] was less than 4.40; in test [2] it was 6.80.

Take `Cc1cnn(Cc2ccc(Cc3ccnc(C(=O)NCc4cnc5[nH]ccc5c4)c3)cc2)c1` [Example 4]: the pIC50 in test [1] was less than 4.40. As to `Nc1nccc2cc(CNC(=O)c3ccc(=O)n(Cc4ccc(Cn5ccccc5=O)cc4)c3)ccc12` [Example 5, N-[(1-Aminoisoquinolin-6-yl)methyl]-6-oxo-1-({4-[(2-oxopyridin-1-yl)methyl]phenyl}methyl)pyridine-3-carboxamide], the pIC50 in test [1] is 4.54; in test [2], 7.61. `Cc1cnn(Cc2ccc(C(O)c3cncc(C(=O)NCc4ccc5c(N)nccc5c4)c3)cc2)c1` (stereo not shown) [Example 7, N-((1-Aminoisoquinolin-6-yl)methyl)-5-(hydroxy(4-((4-methyl-1H-pyrazol-1-yl)methyl)phenyl)methyl)nicotinamide]: the pIC50 in test [1] was 5.10; in test [2], 7.45. For `Cc1cnn(Cc2ccc(Cc3cc(C(=O)NCc4ccc5c(N)nccc5c4)ncn3)cc2)c1` [Example 8, N-[(1-Aminoisoquinolin-6-yl)methyl]-6-({4-[(4-methylpyrazol-1-yl)methyl]phenyl}methyl)pyrimidine-4-carboxamide], the pIC50 is 4.55 in test [1] and 6.92 in test [2]. As for `Cc1cnn(Cc2ccc(Cc3cncc(C(=O)NCc4ccc5c(N)nccc5c4)n3)cc2)c1` [Example 9, N-[(1-Aminoisoquinolin-6-yl)methyl]-6-({4-[(4-methylpyrazol-1-yl)methyl]phenyl}methyl)pyrazine-2-carboxamide], the pIC50 is 5.27 in test [1] and 7.51 in test [2].

With `Cc1ccc2cc(Cc3cncc(C(=O)NCc4ccc5c(N)nccc5c4)n3)ccc2n1` [Example 10, N-[(1-Aminoisoquinolin-6-yl)methyl]-6-[(2-methylquinolin-6-yl)methyl]pyrazine-2-carboxamide], the pIC50 in test [1] is 5.52; in test [2], 6.71. Take `Cc1cnn(Cc2ccc(Cc3cnnc(C(=O)NCc4ccc5c(N)nccc5c4)c3)cc2)c1` [Example 11, N-[(1-Aminoisoquinolin-6-yl)methyl]-5-({4-[(4-methylpyrazol-1-yl)methyl]phenyl}methyl)pyridazine-3-carboxamide]: the pIC50 was 4.43 in test [1] and 7.08 in test [2].

For `Cc1cnn(Cc2ccc(Cc3cncc(C(=O)NCc4c(C)nc5[nH]ccc(C)c4-5)c3)cc2)c1` [Example 12, N-({2,4-Dimethyl-7H-pyrrolo[2,3-b]pyridin-3-yl}methyl)-5-({4-[(4-methylpyrazol-1-yl)methyl]phenyl}methyl)pyridine-3-carboxamide], the pIC50 is 4.83 in test [1] and 6.61 in test [2]. For the molecule `Cc1ccc2cc(Cc3cncc(C(=O)NCc4c(C)nc5[nH]ccc(C)c4-5)c3)ccc2n1` [Example 13, N-({2,4-Dimethyl-7H-pyrrolo[2,3-b]pyridin-3-yl}methyl)-5-[(2-methylquinolin-6-yl)methyl]pyridine-3-carboxamide], the pIC50 in test [1] is 6.63; in test [2], 6.03.

On to `Nc1nccc2cc(CNC(=O)c3ccc(=O)n(Cc4csc(-c5ccccc5)n4)c3)ccc12` [Example 14, N-[(1-Aminoisoquinolin-6-yl)methyl]-6-oxo-1-[(2-phenyl-1,3-thiazol-4-yl)methyl]pyridine-3-carboxamide], for which the pIC50 in test [1] is 5.38; in test [2] it was 5.57.

For `Cc1cnn(Cc2ccc(Cn3cc(C(=O)NCc4ccc5c(N)nccc5c4)ccc3=O)cc2)c1` [Example 15, N-[(1-Aminoisoquinolin-6-yl)methyl]-1-({4-[(4-methylpyrazol-1-yl)methyl]phenyl}methyl)-6-oxopyridine-3-carboxamide], the pIC50 in test [1] is 4.75; in test [2] it was 6.80. For the molecule `Cc1ccc2cc(Cn3cc(C(=O)NCc4ccc5c(N)nccc5c4)ccc3=O)ccc2n1` [Example 16, N-[(1-Aminoisoquinolin-6-yl)methyl]-1-[(2-methylquinolin-6-yl)methyl]-6-oxopyridine-3-carboxamide], the pIC50 in test [1] was 5.69; in test [2], 6.75. In the same order, the values of `Cc1ccc2cc(Cc3cncc(C(=O)NCc4ccc5c(N)nccc5c4)c3)ccc2n1` [Example 17, N-[(1-Aminoisoquinolin-6-yl)methyl]-5-[(2-methylquinolin-6-yl)methyl]pyridine-3-carboxamide] are 5.95 and 7.56. In the same order, the values of `COc1ncc(C(=O)NCc2ccc3c(N)nccc3c2)cc1Cc1ccc2nc(C)ccc2c1` [Example 18, N-[(1-Aminoisoquinolin-6-yl)methyl]-6-methoxy-5-[(2-methylquinolin-6-yl)methyl]pyridine-3-carboxamide] are 5.76 and 6.15.

Consider `Nc1nccc2cc(CNC(=O)c3cncc(CN4CCN(c5ccccc5)CC4)c3)ccc12` [Example 39, N-[(1-Aminoisoquinolin-6-yl)methyl]-5-[(4-phenylpiperazin-1-yl)methyl]pyridine-3-carboxamide], for which the pIC50 in test [2] was 5.00.
